What was measured:
Uncinula necator = assay: Fungicidal test, Uncinula necator (UNCINE) on vines, PRCO; type: in vivo; settings: METHOD 2 (unbanded)
Meloidogyne incognita = assay: Nematode test, J2 infective juveniles of Meloidogyne incognita, mortality; settings: 12.5 ppm; J2 infective juveniles suspended in solution; mortality after three days
Musca domestica = settings: 500 ppm by weight; knockdown assessed 15 minutes after treatment
Puccinia recondita = assay: Fungicidal test, Puccinia recondita (PUCCRT) on wheat, PRCO; type: in vivo; settings: METHOD 2 (unbanded)
[1] = tested on: Phytophthora infestans lycopersici; type: in vivo; settings: METHOD 2 (unbanded)
Pyricularia oryzae = type: in vivo; settings: METHOD 2 (unbanded)
Septoria nodorum = assay: Fungicidal test, Septoria nodorum (LEPTNO) on wheat, PRCO; type: in vivo; settings: METHOD 2 (unbanded)
Venturia inaequalis = assay: Fungicidal test, Venturia inaequalis (VENTIN) on apples, PRCO; type: in vivo; settings: METHOD 2 (unbanded)
[2] = tested on: Erysiphe graminis f.sp. tritici; assay: Fungicidal test, Erysiphe graminis f.sp. tritici (ERYSGT) on wheat, PRCO; type: in vivo; settings: 1 d Prot/Foir; METHOD 2 (unbanded)

Row | Compound | UNCINE 1 d Prot/Foir PRCO (Uncinula necator) | MELGIN = Meloidogyne incognita, grading of mortality (score) (Meloidogyne incognita) | MUSCDO AC = Musca domestica (knockdown), score (Musca domestica) | PUCCRT 1 d Prot/Foir PRCO (Puccinia recondita) | PHYTIN 1 d Prot/Foir PRCO [1] | PYRIOR 1 d Prot/Foir PRCO (Pyricularia oryzae) | LEPTNO 1 d Prot/Foir PRCO (Septoria nodorum) | VENTIN 1 d Prot/Foir PRCO (Venturia inaequalis) | ERYSGT 1 d Prot/Foir PRCO [2]
1 | Cc1nc2cc(CC(=O)Nc3snc(C)c3Br)ccc2o1 [2(A4)] | 90 | 0 (0 indicates less than 40% mortality) | 5 (5 indicates 40-79% mortality) | 100 | 100 | 99 | −12 | 92 | 97
2 | Cc1nc2ccc(CC(=O)Nc3snc(C)c3Cl)cc2[nH]1 [2(A43)] | 11 | 5 (5 indicates 40-79% mortality) | 0 (0 indicates less than 40% mortality) | 7 | 18 | 48 | −3 | 14 | 20
3 | CCCc1nc2cc(CC(=O)Nc3snc(C)c3Cl)ccc2s1 [4(A13)] | 100 | 0 (0 indicates less than 40% mortality) | 9 (9 indicates 80-100% mortality) | 100 | – | 100 | 20 | 55 | 100
4 | Cc1nsc(NC(=O)Cc2ccc3nc(C(C)(C)C)[nH]c3c2)c1Cl [9(A43)] | 7 | 0 (0 indicates less than 40% mortality) | 0 (0 indicates less than 40% mortality) | 25 | 0 | 26 | −4 | 38 | 7
5 | Cc1cc(NC(=O)Cc2ccc3oc(CC(C)(C)C)nc3c2)sn1 [15(A1)] | 100 | 0 (0 indicates less than 40% mortality) | 5 (5 indicates 40-79% mortality) | 96 | 100 | 87 | 4 | 54 | 43
6 | Cc1nsc(NC(=O)Cc2ccc3oc(CC(C)(C)C)nc3c2)c1Br [15(A4)] | 100 | 0 (0 indicates less than 40% mortality) | 9 (9 indicates 80-100% mortality) | 99 | 100 | 98 | 19 | 54 | 91
7 | CCN(C(=O)Cc1ccc2oc(CC(C)(C)C)nc2c1)c1snc(C)c1Cl [15(C3)] | 100 | 0 (0 indicates less than 40% mortality) | 9 (9 indicates 80-100% mortality) | 13 | 97 | 7 | 93 | 64 | 38
8 | CCCN(C(=O)Cc1ccc2oc(CC(C)(C)C)nc2c1)c1snc(C)c1Cl [15(D3)] | 100 | 0 (0 indicates less than 40% mortality) | 0 (0 indicates less than 40% mortality) | 25 | 99 | 27 | 70 | −14 | 55
9 | CCOCN(C(=O)Cc1ccc2oc(CC(C)(C)C)nc2c1)c1snc(C)c1Cl [15(L3)] | 99 | 0 (0 indicates less than 40% mortality) | 9 (9 indicates 80-100% mortality) | 17 | 97 | 20 | 40 | −21 | 100
10 | Cc1nsc(N(C(=O)Cc2ccc3oc(CC(C)(C)C)nc3c2)C(C)C)c1Cl [15(N3)] | 87 | 0 (0 indicates less than 40% mortality) | 0 (0 indicates less than 40% mortality) | 3 | 3 | 13 | −2 | 3 | 8
11 | Cc1nsc(NC(=O)Cc2ccc3oc(CC4CC4)nc3c2)c1Cl [41(A3)] | 91 | 0 (0 indicates less than 40% mortality) | 0 (0 indicates less than 40% mortality) | 98 | 100 | 33 | 77 | 50 | 59
12 | Cc1nsc(NC(=O)Cc2ccc3oc(C(F)(F)C(F)(F)C(F)(F)F)nc3c2)c1Cl [80(A3)] | 100 | 0 (0 indicates less than 40% mortality) | 0 (0 indicates less than 40% mortality) | 100 | 45 | 91 | −2 | −8 | 99
13 | Cc1nsc(NC(=O)Cc2ccc3oc(CC#N)nc3c2)c1Cl [113(A3)] | 21 | 0 (0 indicates less than 40% mortality) | 0 (0 indicates less than 40% mortality) | 41 | 38 | 28 | 20 | 8 | 5
14 | CCN(C)c1nc2cc(CC(=O)Nc3snc(C)c3Cl)ccc2o1 [180(A3)] | 42 | 0 (0 indicates less than 40% mortality) | 0 (0 indicates less than 40% mortality) | 69 | – | 42 | 14 | 0 | 29
15 | Cc1nsc(NC(=O)Cc2ccc3oc(-c4c(F)c(F)c(F)c(F)c4F)nc3c2)c1Cl [287(A3)] | 20 | 0 (0 indicates less than 40% mortality) | – | 94 | 3 | 19 | −2 | 8 | 34

— patent publication US6544989B2, “Benzazoles: benzoxazole, benzthiazole and benzimidazole derivatives” (Syngenta Limited, priority 1998, dated 2003)
